What all share (format): in vivo
One experiment concerns TNF-α. Nature of the experiment: Production quantity of TNF-α of adipose tissues from treated high-fat diet AKR mice (ELISA). As to conditions: 60th day, 25 μg/kg oral once a day; for inhibitory effect on the production of TNF-α compared with negative sample: adipose tissue, Tukey-Kramer's test; for TNF-α: culture supernatant of epididymal fat tissue after 1 hour culture. As for the experimental part: (§1) This example was performed in order to evaluate an effect of the agent for improving insulin resistance of the present invention on production quantities of TNF-α and MCP-1 in each cell of adipose tissue by using AKR mice in which insulin resistance is induced by feeding with a high-fat diet.
(§2) In Example 2, the same Test Samples 1, 2 and the negative sample as those prepared in Example 1 were used.
(§3) These mice were divided into groups, each consisting of 8 mice. […] After 1 hour of the culture, culture supernatants were collected, and concentrations of TNF-α and MCP-1 in the culture supernatants were measured by ELISA method (Biosource).

Experiment [1] has as its system AKR mice in which insulin resistance is induced by feeding with a high-fat diet. Nature of the experiment: Level of free fatty acid in serum of high-fat diet AKR mice. As to conditions: for Test Sample/Negative sample (free fatty acid): serum free fatty acid relative to negative sample, 60th day, 25 μg/kg oral once a day; for Free fatty acid: serum, fasting, 60th day of oral administration 25 μg/kg of body weight once a day, AKR mice on high-fat diet. As for the experimental part: Each of 9,19-cyclolanostan-3-ol and 24-methylene-9,19-cyclolanostan-3-ol produced in Preparation Example 3 was dissolved in DMSO, and each concentration was adjusted to 1 μg/ml with distilled water to thereby prepare Test Samples 1 and 2.
These mice were divided into groups, each consisting of 8 mice.

For experiment [2] the test system is unchanged. Nature of the experiment: Insulin tolerance test in high-fat diet AKR mice. As to conditions: 45th day, 25 μg/kg oral once a day, 4 h fast, human insulin 0.75 U/Kg i.p., up to 60 minutes (FIG. 1). As for the experimental part: This example was performed in order to evaluate an enhancing effect of the agent for improving insulin resistance of the present invention on insulin sensitivity by performing an insulin tolerance test using AKR mice in which insulin resistance is induced by feeding with a high-fat diet.
In Example 3, the same Test Samples 1, 2 and the negative sample as those prepared in Examples 1 and 2 were used.
These mice were divided into groups, each consisting of 8 mice. […] In the present example, the insulin tolerance test was performed in such a manner that: the mice were fasted for 4 hours, and were then intraperitoneally administered with 0.75 U/Kg of body weight of a human insulin (Eli Lily and Company); and changes with time in blood glucose level were measured from the initiation of the administration of the insulin to after 60 minutes later.

The next experiment relates to MCP-1. Nature of the experiment: Production quantity of MCP-1 of adipose tissues from treated high-fat diet AKR mice (ELISA). As to conditions: 60th day, 25 μg/kg oral once a day; for inhibitory effect on the production of MCP-1 compared with negative sample: adipose tissue, Tukey-Kramer's test; for MCP-1: culture supernatant of epididymal fat tissue after 1 hour culture. Here is the method:
as §1, §2, §3
Background: ELISA stands for enzyme-linked immunosorbent assay.

Structures are written as SMILES.

`C=C(CCC(C)C1CCC2(C)C3CCC4C(C)(C)C(O)CCC45CC35CCC12C)C(C)C` (centres unmarked) [Test Sample 2, 24-methylene-9,19-cyclolanostan-3-ol]: in the experiment with TNF-α, the “inhibitory effect on the production of TNF-α compared with negative sample” value is given as “significant inhibitory effects” and the TNF-α worked out at 33.59 ± 0.59 pg/mL. In experiment [1], the “Test Sample/Negative sample (free fatty acid)” value is 81.1% and the Free fatty acid is 1.20 ± 0.25 mEq/l. Also, the “change in blood glucose level after insulin administration” value in experiment [2] is recorded as “rapid decrease in blood glucose levels”. In the experiment with MCP-1, the “inhibitory effect on the production of MCP-1 compared with negative sample” value is recorded as “significant inhibitory effects” and the MCP-1 was found to be 99.32 ± 7.80 pg/mL.
Take `CC(C)CCCC(C)C1CCC2(C)C3CCC4C(C)(C)C(O)CCC45CC35CCC12C` (centres unmarked) [Test Sample 1, 9,19-cyclolanostan-3-ol]: in the experiment with TNF-α, the “inhibitory effect on the production of TNF-α compared with negative sample” value is given as “significant inhibitory effects” and the TNF-α was 29.80 ± 2.58 pg/mL. In experiment [1], the “Test Sample/Negative sample (free fatty acid)” value worked out at 81.1% and the Free fatty acid is reported as 1.20 ± 0.38 mEq/l. Also, in experiment [2], the “change in blood glucose level after insulin administration” value is reported as “rapid decrease in blood glucose levels”. Also, in the experiment with MCP-1, the “inhibitory effect on the production of MCP-1 compared with negative sample” value was “significant inhibitory effects” and the MCP-1 came to 89.83 ± 6.16 pg/mL.
